Patent US11375708B2, “Methods and apparatus for management of mosquito populations with habitat sharing heterospecific insects carrying insect growth regulators” (Rutgers, The State University of New Jersey, priority 2015, dated 2022)

Test system: Aedes albopictus
Assay: Room (30 m^3) release of 20 treated Chironomus against 10 sentinel cups, mosquito pupal mortality
Type: in vivo
Details: 20 treated Chironomus released in 30 m^3 room, 2 days (48 hour exposure), 10 cups each with 250 ml oak infusion
Source text: FIG. 2. Mosquito pupal mortality achieved by releasing oil treated 20 Chironomus adults in a 30 m^3 room for 2 days against 10 sentinel cups. The average pupal mortality of Aedes albopictus was 88±3.5%.
Chironomus females don't need blood feeding and the larvae are easy to culture. […] The larvae developed in cryptic sentinel cups indicated the treated female has visited the cup and laid eggs. In the same cup, pupal mortality of Aedes albpictus indicated the pyriproxyfen transfer (FIG. 5). We further challenged the technology in a meshed tunnel (50×3×2 m) setup in the field with 10 cryptic sentinel cups inside (FIG. 7) by releasing 50 treated C. decorus females for 5 days. […] The backyard experiment was conducted by treating 800 chironomid adults with oil formulation (20% a.i) first and followed with powder formulation (60% a.i) at a separate location to avoid contamination. In this experiment, the active ingredient (a.i.) was pyriproxyfen. In order to avoid any dew effect, release time was in the afternoon between 2 to 5 pm. […]
Adults (males and females) of C. decorus (0 to 2 days old) will be collected and stored in a cage constructed with metal window screen. […] The cage with contaminated Chironomus then will be removed from the bottom of the chamber and ready for release in cases where only oil treatment is desired. […]

SMILES: CC(COc1ccc(Oc2ccccc2)cc1)Oc1ccccn1 (stereo not shown) [pyriproxyfen]
- average pupal mortality of Aedes albopictus: 88.5±3.5%
